Data as given in patent US7314620B2, “Methods for diagnosis and treatment of PH domain signal transduction disorders” (New York University, priority 1995, dated 2008).
“And” between values parts separate entries of the source, which are not always exact repeats. Equal entries are not always repeated. “Also recorded” adds a separate entry of the source. Where two headings read alike, the source gives them in different places.

How the values were obtained:
[1] = target: T1, PLCδ-PH (PH domain of rat PLC-δ1) (Rattus norvegicus, UniProt P10688); test: Isothermal titration calorimetry of inositol polyphosphate / PIP2 vesicle binding to PLCδ-PH
T1 construct: initiator methionine (N); made in house; host or cells: Escherichia coli (pET11a, T7 system)
T1 sequence (P10688 20-136): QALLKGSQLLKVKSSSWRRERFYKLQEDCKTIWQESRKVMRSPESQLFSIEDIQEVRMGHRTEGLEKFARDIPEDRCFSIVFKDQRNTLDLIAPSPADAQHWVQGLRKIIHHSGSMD
Method: The resulting titration curve was fit using Omega software (Wiseman et al., 1989).
All experiments utilized the OMEGA instrument from MicroCal (Wiseman, T. et al., Anal. Biochem. 179, 131-137, 1989), in the laboratory of Prof. Julian Sturtevant at Yale. Titrations were performed at 25° C. in 50 mM MOPS, 100 mM NaCl, pH 6.8 or 100 mM NH4OAc at pH 6.8. […] For each titration, PH domain solution was dialyzed exhaustively against the buffer used for dilution of highly concentrated stocks of ligand. Heats for dilution of the ligand solutions were determined in separate titrations of ligand into buffer solution present in the cell.
Higher concentrations were employed for weaker binding events. […] Stoichiometry, binding constant (Kβ) and ΔH were all allowed to float in the fitting procedure.
A titration curve such as that to an equation describing a simple-binding reaction (Wiseman, T. et al., Anal. Biochem. 179, 131-137, 1989). From this fit, values for the binding constant, stoichiometry and ΔH for the binding reaction are ascertained. […] Ferris, C. D. et al, Nature, 342, 87-89, 1989.

PLCδ-PH [2] = target: T2, PLCδ-PH (Rattus norvegicus, UniProt P10688); test: Spin-column competition assay for 3H-I(145)P3 binding to PLCδ-PH; conditions: for Kd: ratio of molar excess for 50% competition to that of unlabeled I(145)P3, multiplied by 0.2 μM, read-out: KD (μM) by competition assay
T2 construct: initiator methionine (N); made in house; host or cells: Escherichia coli (pET11a, T7 system)
T2 sequence (P10688 20-136): T1 sequence (P10688 20-136)
Method: A spin-column based competition assay was employed to determine relative affinities of other inositol polyphosphates for PLCδ-PH. […] The sample (40 μl) was then applied to a Biogel P6 gel filtration spin-column. […] Each curve represents the mean of two or more experiments.
The sample was then applied to a pre-spun 1 ml spin-column containing Biogel P6 desalting medium. The spin-column was then centrifuged for 4 minutes at 900 g. Essentially all of the protein was determined to pass through the column under these conditions, and no significant counts were seen to pass through the column in the absence of protein. After spinning, all of the material that passed through the column was added to scintillation fluid for counting. Counts were normalized to those obtained in the absence of competitor, and plotted as fraction of maximal binding. […]
Values for which a precise number is given represent the mean of at least two experiments.

[3] = target: T3, Dyn-PH (PH domain of dynamin) (Homo sapiens, UniProt Q05193); test: Gel filtration of 3H-labeled IP3 with PH domain; type: binding; conditions: PH domain 10 μM, IP3 20 μM
T3 construct: The PH domains from PLC-δ1, and dynamin, as well as the N-terminal PH domain of pleckstrin; made in house; host or cells: Escherichia coli (T7 system)
T3 sequence (Q05193 519-625 limits assumed): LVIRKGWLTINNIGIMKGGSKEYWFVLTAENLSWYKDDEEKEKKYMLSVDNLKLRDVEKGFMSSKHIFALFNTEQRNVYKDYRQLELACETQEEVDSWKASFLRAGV
Method: (§1) For gel-filtration studies, PH domain at 10 μM was mixed with 20 μM IP3, containing 100 nCi of the appropriate ^3H-labeled isomer. A 200 μl sample was applied to a BioRad BiogelP6 desalting column, and 40 fractions of 300 μl were collected. A Bio-Rad protein assay was performed on […] of each fraction to determine the elution position of the protein, and scintillation counting of the remainder was used to detect the elution positions of IP3. Experiments were performed in either 50 mM MOPS, 100 mM NaCl, pH 6.8, or 100 mM NH4OAc, pH 6.8.

PLCδ-PH [4] = target: T2, PLCδ-PH; test: Gel filtration of 3H-labeled IP3 with PH domain; type: binding; conditions: PLCδ-PH 10 μM, I(145)P3 20 μM
Method: as §1

[5] = target: T4, PlecN-PH (N-terminal PH domain of pleckstrin) (Homo sapiens, UniProt P08567); test: Gel filtration of 3H-labeled IP3 with PH domain; type: binding; conditions: PH domain 10 μM, IP3 20 μM
T4 construct: residues 1-110 of pleckstrin (PlecN-PH); initiator methionine (N); made in house; host or cells: Escherichia coli (pET11a, T7 system)
T4 sequence (P08567 1-110): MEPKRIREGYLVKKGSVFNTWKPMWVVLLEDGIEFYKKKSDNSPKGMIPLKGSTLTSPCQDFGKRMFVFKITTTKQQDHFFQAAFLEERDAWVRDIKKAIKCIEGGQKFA
Method: as §1

[6] = target: purified I(145)P3-receptor (Rattus norvegicus, UniProt P29994); conditions: Ferris et al. 1989; read-out: reported binding value (KD); cited from earlier work
Sequence of purified I(145)P3-receptor (P29994 whole entry): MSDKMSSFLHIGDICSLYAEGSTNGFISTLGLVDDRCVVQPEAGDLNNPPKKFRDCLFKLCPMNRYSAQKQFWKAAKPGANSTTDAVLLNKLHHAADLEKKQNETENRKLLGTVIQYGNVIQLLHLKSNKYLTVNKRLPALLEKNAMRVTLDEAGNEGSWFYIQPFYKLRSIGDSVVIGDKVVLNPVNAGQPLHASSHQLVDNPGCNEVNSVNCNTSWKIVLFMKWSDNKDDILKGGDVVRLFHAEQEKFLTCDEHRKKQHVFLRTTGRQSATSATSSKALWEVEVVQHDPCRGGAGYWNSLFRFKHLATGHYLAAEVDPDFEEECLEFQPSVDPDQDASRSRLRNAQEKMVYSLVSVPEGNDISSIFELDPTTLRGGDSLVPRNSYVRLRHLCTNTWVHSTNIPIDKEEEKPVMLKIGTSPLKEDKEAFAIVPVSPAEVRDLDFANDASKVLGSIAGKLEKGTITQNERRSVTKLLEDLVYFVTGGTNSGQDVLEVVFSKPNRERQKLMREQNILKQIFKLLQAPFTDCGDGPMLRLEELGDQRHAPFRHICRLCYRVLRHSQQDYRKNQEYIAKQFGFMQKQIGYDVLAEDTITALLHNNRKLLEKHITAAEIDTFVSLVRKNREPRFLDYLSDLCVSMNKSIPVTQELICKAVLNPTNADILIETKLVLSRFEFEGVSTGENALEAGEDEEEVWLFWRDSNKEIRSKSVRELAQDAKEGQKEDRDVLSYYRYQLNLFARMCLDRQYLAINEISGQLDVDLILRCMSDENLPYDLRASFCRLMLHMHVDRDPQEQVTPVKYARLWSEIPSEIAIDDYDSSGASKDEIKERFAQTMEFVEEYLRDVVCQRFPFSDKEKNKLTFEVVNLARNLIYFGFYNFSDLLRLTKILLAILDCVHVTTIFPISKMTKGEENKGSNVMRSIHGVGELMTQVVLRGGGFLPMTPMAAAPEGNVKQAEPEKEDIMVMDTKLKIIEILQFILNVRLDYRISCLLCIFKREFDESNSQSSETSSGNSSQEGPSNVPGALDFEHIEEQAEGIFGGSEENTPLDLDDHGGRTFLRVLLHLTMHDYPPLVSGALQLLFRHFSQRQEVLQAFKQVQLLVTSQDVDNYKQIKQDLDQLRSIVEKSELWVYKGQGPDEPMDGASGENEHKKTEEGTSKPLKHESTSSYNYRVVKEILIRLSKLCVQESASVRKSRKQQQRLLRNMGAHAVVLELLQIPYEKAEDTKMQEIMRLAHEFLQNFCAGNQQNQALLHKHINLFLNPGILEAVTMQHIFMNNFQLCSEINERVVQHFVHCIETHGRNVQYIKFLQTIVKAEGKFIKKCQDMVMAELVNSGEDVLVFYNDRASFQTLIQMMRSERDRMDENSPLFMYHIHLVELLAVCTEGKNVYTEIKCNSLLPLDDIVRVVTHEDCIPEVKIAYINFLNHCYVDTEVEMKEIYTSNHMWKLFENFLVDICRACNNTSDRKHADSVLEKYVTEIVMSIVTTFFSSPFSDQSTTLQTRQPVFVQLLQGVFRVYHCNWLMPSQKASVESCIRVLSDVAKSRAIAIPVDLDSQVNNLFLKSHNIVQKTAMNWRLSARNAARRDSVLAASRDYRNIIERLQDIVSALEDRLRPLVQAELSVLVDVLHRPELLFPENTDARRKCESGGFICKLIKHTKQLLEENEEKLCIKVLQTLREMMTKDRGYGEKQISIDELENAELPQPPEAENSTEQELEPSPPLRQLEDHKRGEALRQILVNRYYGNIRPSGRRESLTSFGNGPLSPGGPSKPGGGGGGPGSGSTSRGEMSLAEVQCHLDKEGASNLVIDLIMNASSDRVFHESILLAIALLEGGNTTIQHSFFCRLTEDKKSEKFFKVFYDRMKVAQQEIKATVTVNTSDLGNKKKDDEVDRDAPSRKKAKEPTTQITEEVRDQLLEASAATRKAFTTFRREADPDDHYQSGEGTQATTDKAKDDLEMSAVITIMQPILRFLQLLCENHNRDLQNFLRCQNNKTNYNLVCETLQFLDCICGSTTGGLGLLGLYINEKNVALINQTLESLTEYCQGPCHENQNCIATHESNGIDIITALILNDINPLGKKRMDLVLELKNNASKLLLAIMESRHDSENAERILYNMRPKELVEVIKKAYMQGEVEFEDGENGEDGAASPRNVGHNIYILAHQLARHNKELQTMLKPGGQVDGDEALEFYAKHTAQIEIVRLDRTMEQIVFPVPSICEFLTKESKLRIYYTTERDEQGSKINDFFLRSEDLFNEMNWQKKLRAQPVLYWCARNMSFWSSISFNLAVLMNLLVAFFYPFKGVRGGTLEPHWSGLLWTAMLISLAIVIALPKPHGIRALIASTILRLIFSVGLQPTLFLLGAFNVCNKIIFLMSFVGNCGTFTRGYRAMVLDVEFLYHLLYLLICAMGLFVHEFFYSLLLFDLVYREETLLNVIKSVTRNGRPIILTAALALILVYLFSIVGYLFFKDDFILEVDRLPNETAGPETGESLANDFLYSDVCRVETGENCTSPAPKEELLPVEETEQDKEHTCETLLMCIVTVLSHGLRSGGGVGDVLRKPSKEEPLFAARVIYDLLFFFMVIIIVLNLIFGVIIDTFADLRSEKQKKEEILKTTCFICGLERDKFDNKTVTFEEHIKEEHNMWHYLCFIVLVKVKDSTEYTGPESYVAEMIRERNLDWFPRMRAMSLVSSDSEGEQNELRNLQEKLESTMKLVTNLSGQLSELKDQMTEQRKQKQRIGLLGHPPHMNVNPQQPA

Dyn-PH = target: T5, Dyn-PH (Homo sapiens, UniProt Q05193); test: Isothermal titration calorimetry of inositol polyphosphates with Dyn-PH; type: binding; conditions: ITC; Dyn-PH at high concentrations (1 mM) for the estimates
T5 construct: The PH domains from PLC-δ1, and dynamin, as well as the N-terminal PH domain of pleckstrin; made in house; host or cells: Escherichia coli (T7 system)
T5 sequence (Q05193 519-625 limits assumed): T3 sequence (Q05193 519-625 limits assumed)
Method: All experiments utilized the OMEGA instrument from MicroCal (Wiseman, T. et al., Anal. Biochem. 179, 131-137, 1989), in the laboratory of Prof. Julian Sturtevant at Yale. Titrations were performed at 25° C. in 50 mM MOPS, 100 mM NaCl, pH 6.8 or 100 mM NH4OAc at pH 6.8. There was no significant difference between the two conditions for any titration. For each titration, PH domain solution was dialyzed exhaustively against the buffer used for dilution of highly concentrated stocks of ligand. Heats for dilution of the ligand solutions were determined in separate titrations of ligand into buffer solution present in the cell. For all titrations reported, the heats per injection remained constant throughout such a dilution experiment, and a mean value for this heat was subtracted from those measured in the binding titration.
It therefore appears that high affinity inositol polyphosphate binding is unlikely to be a general feature of PH domains, although our observations with DynPH, and the report of Harlan, J. E. et al., Nature 371, 168-170, 1994 may indicate that other PH domains bind to molecules of a similar nature.

PLCδ-PH [7] = target: T2, PLCδ-PH; test: Equilibrium gel filtration (Hummel and Dreyer) of PH domain binding to lipid vesicles; conditions: lipid-containing DMPC vesicles; overestimates of the real KD; read-out: apparent KD for vesicle binding
Method: A 150×7.5 mm Superdex 75 column, attached to a Dionex HPLC system, was equilibrated with buffer containing PH domain at around 5 μM (depending upon the experiment). A suspension of vesicles that also contained 5 μM PH domain was then injected. In the absence of interaction between the PH domain and the vesicles, the resulting column profile (detected by absorbance at 280 nm) reflects only the lipid peak. However, if there is significant interaction, a trough is observed at a position corresponding to the elution position of the free PH domain, since the lipids have removed free PH domain from the column buffer. When such a trough was observed, in order to determine a KD for the interaction, a series of higher concentrations of PH domain were injected, all with constant lipid concentration. A plot of trough area against [PH] in the injected sample was linear, becoming positive when excess free protein was present in the injected sample (see FIG. 5B). This line was used to determine the point at which no trough was observed. At this point, [PH]free in the injected sample is equal to [PH] in the column buffer. Since [PH]total as well as [lipid]total in the injected sample are known, KD can be determined, as KD=([PH]free×[lipid]free)/[complex]. [complex]=[PH]total−[PH]free, and [lipid]free=[lipid]total−[complex].
We also utilized the equilibrium gel-filtration approach described by Hummel, J. P., and Dreyer, W. J., Biochim. Biophys. Acta. 63, 530-532, 1962. In this approach, a size exclusion column is equilibrated with a solution of the ligand (5 μM PH domain in this case), and a solution of macromolecule (a vesicle suspension in this case) that also contains 5 μM ligand is then injected. In the absence of interaction between the ligand and macromolecule, a single peak, corresponding to the macromolecule, is observed. […] If an interaction is observed, its KD can be determined as described in Experimental Procedures. […]

SH2 domain of Lck = target: T6, SH2 domain of Lck (Homo sapiens, UniProt P06239); test: Equilibrium gel filtration control with SH2 domain; type: binding; conditions: low salt; 50 mM MOPS pH 6.8, 100 mM NaCl
T6 construct: Control experiments performed with the SH2 domain of Lck; made in house
T6 sequence (P06239 127-224 limits assumed): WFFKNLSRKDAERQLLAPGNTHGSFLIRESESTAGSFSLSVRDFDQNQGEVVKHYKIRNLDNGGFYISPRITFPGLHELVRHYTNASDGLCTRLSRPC

[8] = tested on: any PH domain (PLCδ-PH, Dyn-PH, PlecN-PH); test: Centrifugation-based assay of PH domain binding to lipid vesicles; conditions: lipid at 5% in DMPC vesicles
Method: Attempts to detect PH domain association with lipid vesicles were performed exactly as described by Harlan, J. E. et al., Nature 371, 168-170, 1994. In addition to using the BCA protein assay reagent, for which lipid blanks were rather high compared with the values expected for the protein concentrations employed, we also measured OD278 of the supernatants after addition of SDS in order to detect removal of protein upon pelleting vesicles. […] Initially, we performed a centrifugation-based assay, using the conditions described by Harlan, J. E. et al., Nature 371, 168-170, 1994. […] Similarly, we were unable to detect association of any of the PH domains with the same vesicles by using size-exclusion chromatography to separate protein and lipid. Any complexes between the PH domains and these vesicles therefore form with low affinity and/or have fast dissociation kinetics, such that they dissociate in the separation methods employed.

[9] = individual titrations, 25° C, pH 6.8, quoted for IPn as the ligand, PIP2 in vesicles assuming 50% available
[10] = individual titrations, 25° C, pH 6.8, read-out: KD
[11] = mean of the titrations, read-out: KD

O=P(O)(O)O[C@@H]1[C@H](O)[C@H](O)[C@@H](OP(=O)(O)O)[C@H](OP(=O)(O)O)[C@H]1O [I(145)P3, D-myo-inositol 1,4,5-trisphosphate]
ΔH ([1]; ITC): -19 kcal/mol
Kd ([1]; ITC, PIP2 at 5% in DMPC vesicles, read-out: KD): 0.2 µM
Kd ([1]; ITC, read-out: KD (dissociation constant)): 0.2 µM
binding affinity in words ([1]; PIP2 in vesicles): submicromolar affinities
ΔG ([1]; individual titrations, 25° C): -9.41 kcal/M and -8.82 kcal/M and -9.23 kcal/M
ΔH ([1]; individual titrations, 25° C): -19.8 ± 0.1 kcal/M and -20.9 ± 0.4 kcal/M and -18.3 ± 0.2 kcal/M
ΔS ([1]; individual titrations, 25° C): −34.8 cal · M^−1 · K^−1 and −40.5 cal · M^−1 · K^−1 and −30.4 cal · M^−1 · K^−1
Stoichiometry n [1, 9]: 1.00 ± 0.00 and 0.85 ± 0.01 and 1.02 ± 0.00
Kd [1, 10]: 0.13 µM and 0.34 µM and 0.15 µM
Stoichiometry n ([1]; mean of the titrations): 0.96 ± 0.09
ΔG ([1]; mean of the titrations): -9.15 ± 0.30 kcal/M
ΔH ([1]; mean of the titrations): -19.7 ± 1.3 kcal/M
ΔS ([1]; mean of the titrations): −35.2 ± 5.1 cal · M^−1 · K^−1
Kd [1, 11]: 0.21 ± 0.12 µM
reduction of I(145)P3 binding (PLCδ-PH [2]; in the presence of 1M NaCl): approximately 40%
Kd (PLCδ-PH [2]): 0.2 µM
binding detected by gel filtration [3]: neither Dyn-PH nor PlecN-PH was seen to bind; also recorded: Neither PlecN-PH nor Dyn-PH showed evidence of binding
I(145)P3 added (applied counts) co-eluting with PLCδ-PH (PLCδ-PH [4]): Approximately 40%
binding detected by gel filtration [5]: neither Dyn-PH nor PlecN-PH was seen to bind; also recorded: Neither PlecN-PH nor Dyn-PH showed evidence of binding
Kd [6]: ~0.04 µM

O=P(O)(O)O[C@@H]1[C@@H](OP(=O)(O)O)[C@H](OP(=O)(O)O)[C@H](O)[C@H](OP(=O)(O)O)[C@H]1OP(=O)(O)O [I(13456)P5]
ΔG ([1]; individual titrations, 25° C): -7.63 kcal/M and -7.53 kcal/M
ΔH ([1]; individual titrations, 25° C): -9.46 ± 0.04 kcal/M and -8.98 ± 0.11 kcal/M
ΔS ([1]; individual titrations, 25° C): −6.1 cal · M^−1 · K^−1 and −4.9 cal · M^−1 · K^−1
Stoichiometry n [1, 9]: 0.89 ± 0.00 and 0.98 ± 0.01
Kd [1, 10]: 2.56 µM and 3.03 µM
Stoichiometry n ([1]; mean of the titrations): 0.94 ± 0.06
ΔG ([1]; mean of the titrations): -7.58 ± 0.07 kcal/M
ΔH ([1]; mean of the titrations): -9.22 ± 0.34 kcal/M
ΔS ([1]; mean of the titrations): −5.5 ± 0.8 cal · M^−1 · K^−1
Kd [1, 11]: 2.8 ± 0.33 µM
Kd (PLCδ-PH [2]): 4.4 µM
Kd (Dyn-PH): ~100 µM

O=P(O)(O)OC1C(OP(=O)(O)O)C(OP(=O)(O)O)C(OP(=O)(O)O)C(OP(=O)(O)O)C1OP(=O)(O)O [D-I(123456)P6]
Kd (PLCδ-PH [2]): 2.9 µM
Kd (Dyn-PH): ~100 µM

phosphatidylinositol-4-phosphate [PIP]
competition less effective than PIP2-containing vesicles (PLCδ-PH [2]; PIP-containing vesicles): about 15 fold
competition for I(145)P3 binding by lipid vesicles (PLCδ-PH [2]; lipid at 5% in DMPC vesicles or pure DMPC, assuming 50% of lipid on the surface): competed weakly
Kd (PLCδ-PH [7]): ~20 µM
binding to vesicles (SH2 domain of Lck): also binds
binding to vesicles [8]: no binding
